This passage reports MIC and LD50 results from ChEMBL document CHEMBL3421531, “Synthesis, and structure-activity relationship for C(4) and/or C(5) thienyl substituted pyrimidines, as a new family of antimycobacterial compounds” (Eur J Med Chem, 2015).

Converted amounts (≈) assume the structure as drawn.

Data set [1] concerns Mycobacterium tuberculosis. Description: Antimycobacterial activity against Mycobacterium tuberculosis H37Rv after 10 days by microbroth dilution method. As to conditions: 240 h. The class given is functional.
In data set [2] the test system is Mycobacterium avium. Description: Antimycobacterial activity against Mycobacterium avium after 10 days by microbroth dilution method. Format: functional. As to conditions: 240 h.
The subject of data set [3] is Mycolicibacter terrae. The data set is described as follows: Antimycobacterial activity against Mycobacterium terrae after 10 days by microbroth dilution method. The class given is functional. As to conditions: 240 h. In general terms: In broth dilution the organism is exposed to a series of concentrations in liquid medium.
Data set [4] is described as follows: Toxicity in peroral dosed mouse after 14 days. The class given is organism-based. Conditions: in vivo, po.

Regarding `c1csc(-c2ccc(-c3ccncn3)s2)c1`, the MIC in data set [1], in data set [2] and in data set [3] was 51.2 µM (≈ 12.5 µg/mL) in each case.
In the case of `Brc1ccc(-c2cncnc2)s1`, the minimum inhibitory concentration (MIC) in data set [1], in data set [2] and in data set [3] was 51.8 µM (≈ 12.5 µg/mL) in each case.
Regarding `c1csc(-c2ncncc2-c2ccsc2)c1`, the minimum inhibitory concentration (MIC) in data set [1], in data set [2] and in data set [3] was 25.6 µM (≈ 6.25 µg/mL) throughout.
`c1csc(-c2ccc(-c3ncncc3-c3ccsc3)s2)c1`: the minimum inhibitory concentration (MIC) in data set [1], in data set [2] and in data set [3] was 19.1 µM (≈ 6.25 µg/mL) each time.
For the compound `c1ccc(-c2ccc(-c3ncncc3-c3ccsc3)s2)cc1`, the MIC in data set [1], in data set [2] and in data set [3] was 19.5 µM (≈ 6.25 µg/mL) each time.
`Brc1ccc(-c2ncncc2-c2ccsc2)s1`: the MIC in data set [1], in data set [2] and in data set [3] was 19.3 µM (≈ 6.25 µg/mL) in each case.
`c1csc(-c2ncncc2-c2cc3ccccc3s2)c1`: the MIC in data set [1], in data set [2] and in data set [3] was 21.2 µM (≈ 6.25 µg/mL) each time.
On to `c1csc(-c2ccc(-c3ncncc3-c3cc4ccccc4s3)s2)c1`, for which the MIC in data set [1], in data set [2] and in data set [3] was 33.2 µM (≈ 12.5 µg/mL) in each case.
`c1ccc(-c2ccc(-c3ncncc3-c3cc4ccccc4s3)s2)cc1`: the MIC – broadly, the lowest concentration that inhibits growth of the organism – in data set [1] came to 8.37 µM (≈ 3.1 µg/mL); in data set [2] it was 8.37 µM (≈ 3.1 µg/mL); in data set [3], 4.05 µM (≈ 1.5 µg/mL).
In the case of `Brc1ccc(-c2ncncc2-c2cc3ccccc3s2)s1`, the minimum inhibitory concentration (MIC) in data set [1], in data set [2] and in data set [3] was 33.5 µM (≈ 12.5 µg/mL) throughout.
As for `c1csc(-c2ncncc2-c2csc3ccccc23)c1`, the minimal inhibitory concentration (MIC) in data set [1], in data set [2] and in data set [3] was 42.5 µM (≈ 12.5 µg/mL) each time.
In the case of `c1csc(-c2ccc(-c3ncncc3-c3csc4ccccc34)s2)c1`, the LD50 (commonly the dose at which mortality reaches 50%) at 336 h in data set [4] was 90 mg/kg. The MIC in data set [1] turned out to be 0.98 µM (≈ 0.369 µg/mL); in data set [2], 0.98 µM (≈ 0.369 µg/mL); in data set [3] it was 0.4 µM (≈ 0.151 µg/mL).
In the case of `c1ccc(-c2ccc(-c3ncncc3-c3csc4ccccc34)s2)cc1`, the LD50 at 336 h in data set [4] was 45 mg/kg. Also, the MIC in data set [1], in data set [2] and in data set [3] was 0.4 µM (≈ 0.148 µg/mL) throughout.
In the case of `Brc1ccc(-c2ncncc2-c2csc3ccccc23)s1`, the MIC in data set [1] is 8.3 µM (≈ 3.1 µg/mL); in data set [2] it was 8.3 µM (≈ 3.1 µg/mL); in data set [3], 4.02 µM (≈ 1.5 µg/mL).
On to `Brc1cncnc1`, for which the MIC in data set [1], in data set [2] and in data set [3] was 78.6 µM (≈ 12.5 µg/mL) throughout.
Regarding `c1csc(-c2cncnc2)c1`, the minimum inhibitory concentration (MIC) in data set [1] turned out to be 38.5 µM (≈ 6.25 µg/mL); in data set [2], 19.1 µM (≈ 3.1 µg/mL); in data set [3] it was 19.1 µM (≈ 3.1 µg/mL).
For the compound `c1ncc(-c2ccsc2)cn1`, the MIC in data set [1], in data set [2] and in data set [3] was 77.1 µM (≈ 12.5 µg/mL) throughout.
As for `c1ccc2sc(-c3cncnc3)cc2c1`, the MIC in data set [1], in data set [2] and in data set [3] was 58.9 µM (≈ 12.5 µg/mL) each time.
`c1ccc2c(-c3cncnc3)csc2c1`: the 50% lethal dose (LD50) at 336 h in data set [4] is 700 mg/kg. The MIC in data set [1] was 7.07 µM (≈ 1.5 µg/mL); in data set [2], 3.3 µM (≈ 0.701 µg/mL); in data set [3], 3.3 µM (≈ 0.701 µg/mL).
`c1csc(-c2ccc(-c3cncnc3)s2)c1`: the MIC in data set [1], in data set [2] and in data set [3] was 25.6 µM (≈ 6.25 µg/mL) in each case.
Consider `c1ccc(-c2ccc(-c3cncnc3)s2)cc1`, for which the MIC in data set [1], in data set [2] and in data set [3] was 26.2 µM (≈ 6.25 µg/mL) in each case.
Take `Brc1ccc(-c2ncncc2Br)s1`: the minimum inhibitory concentration (MIC) in data set [1], in data set [2] and in data set [3] was 9.69 µM (≈ 3.1 µg/mL) throughout.
Take `c1csc(-c2cncnc2-c2cccs2)c1`: the MIC in data set [1], in data set [2] and in data set [3] was 12.7 µM (≈ 3.1 µg/mL) throughout.
`c1csc(-c2ccc(-c3ncncc3-c3cccs3)s2)c1`: the median lethal dose (LD50) at 336 h in data set [4] was determined as 160 mg/kg. In addition, the MIC in data set [1] is 2.14 µM (≈ 0.699 µg/mL); in data set [2], 0.92 µM (≈ 0.3 µg/mL); in data set [3] it was 0.92 µM (≈ 0.3 µg/mL).
On to `c1ccc(-c2ccc(-c3ncncc3-c3cccs3)s2)cc1`, for which the MIC in data set [1], in data set [2] and in data set [3] was 39 µM (≈ 12.5 µg/mL) in each case.
On to `Brc1ccc(-c2ncncc2-c2cccs2)s1`, for which the minimal inhibitory concentration (MIC) in data set [1], in data set [2] and in data set [3] was 38.7 µM (≈ 12.5 µg/mL) each time.
Consider `NNC(=O)c1ccncc1` [ISONIAZID], for which the minimum inhibitory concentration (MIC) in data set [1], in data set [2] and in data set [3] was 0.73 µM (≈ 0.1 µg/mL) in each case.
In data set [1], `NC(=O)c1cnccn1` [PYRAZINAMIDE] gave an MIC of 102 µM (≈ 12.5 µg/mL).
